From article PMC6493276, “Quantification of 1D, a novel derivative of curcumin with potential antitumor activity, in rat plasma by liquid chromatography-tandem mass spectrometry: application to a pharmacokinetic study in rats” (Pharmaceutical Biology, 2019)

Key:
A549 cells = tested on: A549 cells; design: method as in Tong et al. [2016]; conditions: treatment for 48 h, ref Tong et al. [2016]; cited from earlier work
[1] = Stability of 1 D in rat plasma under various storage conditions; type: in vitro ADME; conditions: for Accuracy / Measured concentration (mean ± SD): n = 5
Method: The stability of 1 D in rat plasma was evaluated in five replicates at three QC levels under various storage conditions. […] Short-term and long-term stability were evaluated by storing plasma samples at room temperature for 6 h and −20 °C for 1 month before sample preparation. Freeze-thaw stability of QC samples was assessed after three freeze-thaw cycles (−20 to 25 °C). Autosampler stability was evaluated by keeping the extracted plasma samples in the autosampler for 24 h before analysis. Samples were considered to be stable if assay values were within the acceptable limits of accuracy (±15%) and precision (15% RSD).

HT29 cells = tested on: HT29 cells; design: method as in Tong et al. [2016]; conditions: treatment for 48 h, ref Tong et al. [2016]; cited from earlier work
HCT116 cells = tested on: HCT116 cells; design: method as in Tong et al. [2016]; conditions: treatment for 48 h, ref Tong et al. [2016]; cited from earlier work
HJ1299 cells = tested on: HJ1299 cells; design: method as in Tong et al. [2016]; conditions: treatment for 48 h, ref Tong et al. [2016]; cited from earlier work
[2] = Pharmacokinetic study in rats after single intravenous administration; type: in vivo; conditions: male, Sprague-Dawley, rat, plasma
Method: The applicability of the developed bioanalytical LC-MS/MS method was evaluated by quantitative determination of 1 D in rat plasma after single intravenous administration. All experimental procedures and animal care were performed following approval from the Ethic Committee of Laboratory Animals of the Affiliated Hospital of Qingdao University. Six male Sprague–Dawley rats, weighing 200 ± 15 g, were obtained from Beijing Vital River Experimental Animal Co. Ltd (Beijing, China). The animals were quarantined for 1 week prior to the study and were maintained on a 12 h light/12 h dark cycle at 22 ± 2 °C and at 50 ± 10% relative humidity. The rodents were given a commercial rat chow and water ad libitum. An intravenous dose of 5 mg/kg was selected based on our previous toxicological and pharmacodynamic studies in rats (unpublished data). The administration solution was prepared by dissolving 1 D in PEG400: PG400: DMSO: saline (30: 30: 1: 39, v/v/v/v) to give a concentration of 2 mg/mL. After fasting overnight, rats were given the prepared administration solution at 5 mg/kg via the tail vein. Blood samples (0.2 mL) were collected into heparinized tubes by retro-orbital puncture at 0 (pre-dose), 5, 10, 20, 30, and 45 min, and 1, 1.5, 2, 4, 8, 12, and 24 h after dosing. Plasma was separated by centrifugation at 4500 rpm for 10 min and stored at −20 °C until analysis. The pharmacokinetic parameters including area under the concentration-time curve (AUC), apparent volume of distribution (Vz), elimination half-life (t1/2), and clearance (CLz) were calculated by a non-compartmental analysis method using the DAS 3.0.2 pharmacokinetic programme. As observable parameters, the maximum plasma concentration (Cmax) and the time to reach the maximum concentration (Tmax) were obtained directly.

[3] = extracted rat plasma, spiked 10 ng/mL, autosampler for 24 h
[4] = extracted rat plasma, spiked 100 ng/mL, autosampler for 24 h
[5] = extracted rat plasma, spiked 500 ng/mL, autosampler for 24 h
[6] = rat plasma, spiked 10 ng/mL, 4 weeks at −20 °C
[7] = rat plasma, spiked 10 ng/mL, 6 h at 25 °C
[8] = rat plasma, spiked 10 ng/mL, three freeze-thaw cycles
[9] = rat plasma, spiked 100 ng/mL, 4 weeks at −20 °C
[10] = rat plasma, spiked 100 ng/mL, 6 h at 25 °C
[11] = rat plasma, spiked 100 ng/mL, three freeze-thaw cycles
[12] = rat plasma, spiked 500 ng/mL, 4 weeks at −20 °C
[13] = rat plasma, spiked 500 ng/mL, 6 h at 25 °C
[14] = rat plasma, spiked 500 ng/mL, three freeze-thaw cycles
[15] = single intravenous 5 mg/kg, n = 6

For `Br.COc1ccc(/C=C/c2cc(/C=C/c3ccc(OC)cc3)nc(OCCCCSC(=N)N)n2)cc1` [1 D, (E,E)-4-(4,6-bis(4-methoxystyryl)pyrimidin-2-yloxy)butyl carbamimidothioate hydrobromide], which IC50 (A549 cells) is on record?
Its IC50 is 0.99 µM.

What about the Accuracy [1, 3] of the same compound?
Its Accuracy is 103.6%.

And the “Measured concentration (mean ± SD)” value [1, 3]?
Its value is 10.36 ± 0.75 ng/mL.

And the Accuracy [1, 4]?
Its Accuracy is 101.5%.

And the “Measured concentration (mean ± SD)” value [1, 4]?
Its value is 101.51 ± 6.43 ng/mL.

And the Accuracy [1, 5]?
The Accuracy was 96.2%.

What about the “Measured concentration (mean ± SD)” value [1, 5] of the same compound?
The value was 481.19 ± 42.98 ng/mL.

And the Accuracy [1, 6]?
The Accuracy was 106.1%.

And the “Measured concentration (mean ± SD)” value [1, 6]?
The value was 10.61 ± 0.55 ng/mL.

And the Accuracy [1, 7]?
Its Accuracy is 102.7%.

And the “Measured concentration (mean ± SD)” value [1, 7]?
The value was 10.27 ± 0.56 ng/mL.

And the Accuracy [1, 8]?
The Accuracy was 101.2%.

What about the “Measured concentration (mean ± SD)” value [1, 8] of the same compound?
The value was 10.12 ± 0.66 ng/mL.

What about the Accuracy [1, 9] of the same compound?
Its Accuracy is 98.4%.

And the “Measured concentration (mean ± SD)” value [1, 9]?
The value was 98.39 ± 7.52 ng/mL.

What about the Accuracy [1, 10] of the same compound?
Its Accuracy is 104.7%.

What about the “Measured concentration (mean ± SD)” value [1, 10] of the same compound?
The value was 104.71 ± 5.16 ng/mL.

And the Accuracy [1, 11]?
Its Accuracy is 99.4%.

What about the “Measured concentration (mean ± SD)” value [1, 11] of the same compound?
The value was 99.36 ± 6.92 ng/mL.

And the Accuracy [1, 12]?
The Accuracy was 103.7%.

What about the “Measured concentration (mean ± SD)” value [1, 12] of the same compound?
Its value is 518.57 ± 43.30 ng/mL.

What about the Accuracy [1, 13] of the same compound?
The Accuracy was 106.1%.

And the “Measured concentration (mean ± SD)” value [1, 13]?
The value was 530.28 ± 34.32 ng/mL.

And the Accuracy [1, 14]?
The Accuracy was 100.8%.

And the “Measured concentration (mean ± SD)” value [1, 14]?
The value was 503.88 ± 33.79 ng/mL.

What about the “Changes in concentrations after storage (stability in rat plasma)” value ([1]; room temperature 6 h, −20 °C 1 month, autosampler 24 h, three freeze-thaw cycles) of the same compound?
Its value is “No significant changes”.

What about the IC50 (HT29 cells) of the same compound?
The IC50 was 0.79 µM.

And the IC50 (HCT116 cells)?
The IC50 was 1 µM.

And the IC50 (HJ1299 cells)?
Its IC50 is 0.92 µM.

And the AUC(0-t) ([2]; 5 mg/kg, intravenous administration, non-compartmental (abstract))?
The AUC(0-t) was 807 ng·h/mL.

And the Cmax [2, 15]?
The Cmax was 610 ng/mL.

And the Tmax [2, 15]?
Its Tmax is 4.8 min.

What about the AUC(0-inf) ([2]; single intravenous 5 mg/kg, n = 6, non-compartmental) of the same compound?
Its AUC(0-inf) is 853 ng·h/mL.

And the clearance ([2]; single intravenous 5 mg/kg, n = 6, read-out: CLz (clearance) (converted))?
Its clearance is 106 mL/min/kg.

What about the MRT last ([2]; single intravenous 5 mg/kg, n = 6, read-out: MRT(0−t)) of the same compound?
Its MRT last is 3.4 h.

And the MRT inf ([2]; single intravenous 5 mg/kg, n = 6, read-out: MRT(0−∞))?
The MRT inf was 4.7 h.

And the Vd ([2]; single intravenous 5 mg/kg, n = 6, read-out: Vz (apparent volume of distribution))?
The Vd was 46.6 L/kg.

And the half-life ([2]; single intravenous 5 mg/kg, n = 6, read-out: t1/2 (elimination half-life) (converted))?
The half-life was 4.92 h.
